Values joined by “and” are separate entries in the source; they are usually repeats but may differ in a detail not shown here. Equal values may be shown once. Read-outs that look alike come from different tables or passages of the source.
Assays:
[1] = system: MRL/MpJ-Fas^lPr autoimmune mice; test: Drug combination therapy: survival; type: in vivo, mouse; conditions: for % alive: 2 months
[2] = system: MRL/MpJ-Fas^lPr autoimmune mice; test: Auditory brainstem response (ABR) audiometry after oral steroid treatment; type: in vivo, mouse; conditions: for % of ears that are same (unchanged) / % of ears that are worse / % of ears that are better: two months following treatment, dose not stated; for % of ears that are same (unchanged): combined ABR thresholds +/-15 dB; for % of ears that are worse: combined ABR thresholds higher by 20 dB or more; for % of ears that are better: combined ABR thresholds lower by 20 dB or more
Description: The MRL/MpJ-Fas^lPr autoimmune mouse is an established model of autoimmune sensorineural hearing loss (Ruckenstein et al., Acta OtolaryngoL 113:160-5, 1993; Trune et al. Hear. Res. 105:57-64, 1997). These mice carry a Fas gene defect that prevents apoptosis of self-recognizing T lymphocytes, leading to T cell proliferation and polyclonal B cell activation (Watanabe-Fukunaga et al. Nature 356:314-7, 1992). Spontaneous systemic autoimmune disease develops in MRL/MpJ-Fas^lPr autoimmune mice, resulting in increased serum immune complexes, anti-DNA antibodies, lymphadenopathy, elevated auditory thresholds, lowered hematocrits due to anti-erythrocyte autoantibodies, splenomegaly, increased body mass and pathological changes in the stria vascularis (Id. and Ruckenstein et al. Otolaryngol. Head Neck Surg. 121:452-6, 1999; Trune et al. Hear. Res. 155:9-20, 2001).
Mice (Jackson Laboratories, Bar Harbor, Me.) were obtained at two months of age. Onset of systemic autoimmune disease occurs at 3-4 months of age and cochlear thresholds rise shortly thereafter (Trune et al., Otolaryngol. Head Neck Surg. 117:504-8, 1997). Mice were tested with auditory brainstem response (ABR) audiometry (see Example 2) at 2-3 months of age to establish pretreatment baseline auditory thresholds.
(§1) Animals were anesthetized (kcetamine+xylazine) and the individual ears of each mouse stimulated with a closed-tube sound delivery system sealed into the ear canal. The ABR to tone-burst stimuli at 4, 8, 16, and 32 kHz was recorded and thresholds obtained for each ear. Absolute thresholds and threshold changes over the treatment period for each ear were calculated to determine if treatments impact cochlear function. For each ear, pretreatment and posttreatment thresholds at the four frequencies were compared statistically to establish any change over the treatment period.
(§2) The shifts for each frequency within an ear were added to derive its total change in threshold as described previously (Trune et al., Hear. Res. 137:160-6, 1999; Trune et al., Hear. Res. 137:167-73, 1999). If the ear's combined posttreatment thresholds was lower by 20 dB or more, the ear was considered to be improved (average of 5 dB per frequency). The ear is considered unchanged if the combined thresholds are +/−15 dB and worse if the combined thresholds were higher by 20 dB or more.

[3] = system: MRL/MpJ-Fas^lPr autoimmune mice; test: Spleen weight (splenomegaly); type: in vivo, mouse; conditions: at sacrifice; prednisolone 5 mg treatment; aldosterone dose not stated
Description: (§3) This example describes methods used to measure the severity of systemic autoimmune disease, as described in Trune et al. (Hear. Res. 38:57-66, 1989). Briefly, baseline and posttreatment serum samples are taken for measurement of hematocrit, antinuclear antibodies, and serum immune complexes as indices of systemic autoimmune disease progression. […] For those mice still alive at the time of sacrifice, some spleens were weighed to assess splenomegaly, another index of systemic autoimmune disease progression.
Increased spleen size also is a manifestation of autoimmune disease, increasing with progression of systemic T and B cell proliferation. The spleen is approximately 75-100 mg in normal mice.

[4] = system: MRL/MpJ-Fas^lPr autoimmune mice; test: Cochlear histology of the stria vascularis; type: in vivo, mouse; conditions: for stria vascularis appearance: after steroid treatment, qualitative
Protocol: Following decalcification in EDTA, the ears were cryostat sectioned for qualitative morphologic evaluations of the stria vascularis. The procedure of Whitlon et al. (Brain Res. Protocols, 6:159-66, 2001) can be used to improve OCT compound infiltration and tissue preservation. The cochleas were cryostat sectioned for immunocytochemical analyses. Quantitative morphology was performed on glycol methacrylate (GMA) embedded tissue as follows. […] Following decalcification in EDTA, the ears were embedded in glycol methacrylate for light microscopic examination. Every fourth section (5 μm thickness) wass serially mounted on glass slides and stained for quantitative and qualitative analyses. Cochleas were scanned for pathological changes and treatment effects. Of particular interest is the stria vascularis, lateral wall, hair cells, spiral ganglion neurons, and all blood vessels in modiolar and sensory regions. The area occupied by stria vascularis, blood vessels, non-blood vessels, and intercellular edema was measured for statistical analysis. Alternatively, the following methods can be used to qualitatively determine stria vascularis and spiral ligament and integrity of endothelial cell tight junctions, intercellular edema. […] Thin sections are observed on a Philips CM100. Qualitative observations are made of the cochlear tissue areas above and any other regions determined in the immunohistochemistry section to be responsive to steroid therapy. Stria vascularis is examined for integrity of endothelial cell tight junctions, and intercellular edema, to determine the treatment effects on known changes that occur in autoimmune disease.

[5] = system: MRL/MpJ-Fas^lPr autoimmune mice; test: Blood hematocrit as index of systemic autoimmune disease; type: in vivo, mouse; conditions: for change in hematocrit: pre- vs posttreatment, any dose
Description: as §3
(§4) It may not be possible to perform an extensive statistical analysis on serum measures if there are high mortality rates, if the differential mortality rates between groups lead to large differences in sample sizes, and an inability to get sufficient blood from some mice. In this case, pretreatment-posttreatment statistical comparisons (paired t-tests) are conducted only for those mice that survive the treatment period.

[6] = system: MRL/MpJ-Fas^lPr autoimmune mice; test: Anti-nuclear antibody (ANA) levels by immunofluorescence; type: in vivo, mouse; conditions: pre- vs posttreatment
Description: as §3
Antibodies against nuclear material are another manifestation of autoimmune disease. Anti-nuclear antibody (ANA) levels are determined by level of immunofluorescence (1+ to 4+) with normal as 1+as previously described (Trune et al., Hear. Res. 38:57-66, 1989).

[7] = system: MRL/MpJ-Fas^lPr autoimmune mice; test: Stria blood vessel size (quantitative morphology, plastic embedding); type: in vivo, mouse; conditions: Chi-squared of vessels above and below normal median
Description: To increase histological detail in order to quantitatively measure steroid responsive hearing loss (stria blood vessel sizes), plastic embedding methods were used as described herein. Age-matched BALB/c controls also were processed to provide details of non-autoimmune stria. Camera lucida drawings were made of the stria, its blood vessels, and the edematous spaces. Digitized measurements were made of these various features.

[8] = system: MRL/MpJ-Fas^lPr autoimmune mice; conditions: mouse, in vivo
Description: (§5) Serum samples were collected for baseline levels of hematocrit, serum immune complexes, and antinuclear antibodies, all hallmarks of systemic autoimmune disease. […] At the end of treatments, ABR audiometry and serum collection were repeated at 2, 3, and 4 months of treatment to determine steroid effects on cochlear function and systemic autoimmunity.
(§6) Oral delivery in mice provides a constant source of steroid, parallels oral administration in humans, and avoids the trauma of daily injections.
(§7) Mice receiving aldosterone were administered a daily oral dose of 3, 5, 15, or 30 μLg/kg/day of d-aldosterone (Sigma, St. Louis Mo.). Aldosterone drinking water was prepared by dissolving 50 μg of steroid in 50 μl of 100% ETOH, then diluting the required amount in the 500 ml of water in the drinking bottle to reach the final effective dose. The highest final ETOH concentration in a waterbottle was 0.018% (90 μl dose) and was considered negligible.
(§8) Mice receiving fludrocortisone were administered a daily oral dose of 3 μg/kg per day or 10 μg/kg per day. Fludrocortisone drinking water was prepared by dissolving 50 μg of fludrocortisone, 50 μl of 100% ETOH, then diluting the required amount in the 500 ml of water in the drinking bottle to reach the final effective dose. The final ETOH concentration in a water bottle was considered negligible.
(§9) The shift in thresholds between baseline and posttreatment times was analyzed for each ear with a paired t-test. […] A probability value less than 0.05 was considered significant in all tests. […] In addition, by summing the shifts at each frequency, any random fluctuations in thresholds at the different frequencies due to equipment or animal variation are mathematically removed.

[9] = system: MRL/MpJ-Fas^lPr autoimmune mice; test: Drug combination therapy: ABR ear outcome; type: in vivo, mouse
Protocol: as §1, §2
Hearing loss was monitored monthly using the method described in Example 2.

[10] = system: MRL/MpJ-Fas^lPr autoimmune mice; conditions: Trune et al., Laryngoscope 2000; cited from earlier work
[11] = system: MRL/MpJ-Fas^lPr autoimmune mice; test: Serum immune complexes as index of systemic autoimmune disease; type: in vivo, mouse; conditions: for effect on serum immune complexes: pre- vs posttreatment
Description: as §3, §4

[12] = system: MRL/MpJ-Fas^lPr autoimmune mice; test: Survival and tolerance of steroid drinking water; conditions: for tolerance of steroid in the drinking water: dehydration, avoidance of drinking
Description: as §5, §6, §7, §8, §9

[13] = system: MRL/MpJ-Fas^lPr autoimmune mice
Protocol: (§10) The spironolactone treatment group was given daily oral doses (5 mg/kg per day) of spironolactone (Sigma, St. Louis, Mo.). Spironolactone drinking water was prepared by dissolving 15 mg of spironolactone in 0.6-0.8 ml of 100% ethyl alcohol (ETOH) and diluting it into a 500 ml drinking-water bottle. Mice drink 3-5 ml of water daily, so the effective dose was approximately 0.15 mg per day. The final ETOH concentration was approximately 0.1% and considered negligible. The dose of spironolactone administered (5 mg/kg per day) was equivalent to the dose used clinically for the treatment of primary hyperaldosteronism and was likely insufficient to completely block the mineralocorticoid receptor.
The spironolactone+aldosterone treatment group was given 15 μg/kg per day of aldosterone in addition to the 5 mg/kg/day of spironolactone. Aldosterone drinking water was prepared by dissolving 50 μg of aldosterone in 50 μl of 100% ETOH and diluting it in the same 500 ml drinking-water bottle as the spironolactone. The final effective dose of aldosterone was approximately 0.5 μg per day. The final ETOH concentration of aldosterone was less than 0.009%. […]
ABR thresholds were recorded before and during treatment (2, 3, and 4 months) to measure the effect of steroids on hearing decline as described above in Example 2.
Ears also were analyzed independently across all frequencies. […]

[14] = system: MRL/MpJ-Fas^lPr autoimmune mice; conditions: spironolactone study
Protocol: as §10

[15] = Aldosterone 10 μg/kg/day, 2 months of treatment

Compound: C[C@]12CCC(=O)C=C1CC[C@@H]1[C@@H]2[C@@H](O)C[C@]2(C=O)[C@@H](C(=O)CO)CC[C@@H]12 [Aldosterone, d-aldosterone]
- Alive at 2 months of Tx (mice) ([1]; Aldosterone 10 μg/kg/day): 7
- % alive ([1]; Aldosterone 10 μg/kg/day): 87.5%
- overall ABR threshold changes vs pretreatment baselines ([2]; two month treatment period): prevent significant overall threshold changes
- % of ears that are same (unchanged) [2]: 27%
- % of ears that are worse [2]: 69%
- % of ears that are better [2]: 4%
- thresholds / cochlear function relative to water controls ([2]; two months of treatment, Chi-squared): significantly better thresholds than controls
- average spleen weight [3]: 399 mg
- stria vascularis appearance [4]: restored the stria to almost normal appearance
- stria appearance ([4]; aldosterone 15 and 30 μg treatment groups): virtually normal in appearance
- stria epithelia appearance ([4]; lowest aldosterone dose): some edema and large vessels
- change in hematocrit [5]: did not cause any significant change
- impact on continuing elevation of ANA levels [6]: did not have a significant impact
- stria blood vessel size relative to normal BALB/c median (35.3 μm^2) [7]: the same size as normal mice
- tolerance of steroid in the drinking water [8]: no adverse affects
- # Better (ears) [9, 15]: 0
- # Worse (ears) [9, 15]: 13
- # no change (ears) [9, 15]: 1
- (%) Worse (ears) [9, 15]: (93%)
- (%) no change (ears) [9, 15]: 7%
- prevention of hearing loss / decrease of rate of hearing loss ([9]; prednisolone alone at 1 mg/kg/day, aldosterone alone at 3 μg/kg/day): not prevented
- reversing or stabilizing autoimmune related hearing loss [10]: just as effective as prednisolone
- posttreatment serum immune complex levels ([11]; higher dose aldosterone, four surviving mice): 53,000 μg/ml
- serum immune complex levels in individual mice ([11]; higher dose aldosterone, two of the four surviving mice): 157,000 μg/ml and 45,000 μg/ml
- effect on serum immune complexes [11]: did not show any significant depression

Compound: C[C@]12CCC(=O)C=C1CC[C@H]1[C@@H]3CC[C@](O)(C(=O)CO)[C@@]3(C)C[C@H](O)[C@@]12F [Fludrocortisone]
- % of ears that are same (unchanged) [2]: 55% and 54.5%
- % of ears that are worse [2]: 34%
- % of ears that are better [2]: 12% and 11.5%
- tolerance of steroid in the drinking water [12]: similarly tolerate

Compound: CC(=O)S[C@@H]1CC2=CC(=O)CC[C@]2(C)[C@H]2CC[C@@]3(C)[C@@H](CC[C@@]34CCC(=O)O4)[C@H]12 [Spironolactone]
- hearing patterns compared to water controls ([13]; four months of treatment): no difference from controls
- hearing thresholds compared to water controls ([13]; three months of treatment): no different from untreated mice
- systemic immune disease (immune complexes, hematocrits, body weights) [14]: normal progression of systemic disease

Compound: prednisolone sodium phosphate
- Alive at 2 months of Tx (mice) ([1]; Prednisolone 3 mg/kg/day): 3
- % alive ([1]; Prednisolone 3 mg/kg/day): 42.9%
- systemic immune disease (immune complexes, hematocrits, body weights) [14]: all of the normal immune suppression effects
- average spleen weight [3]: 45 mg
- stria vascularis appearance [4]: proper epithelium thickness, although dilated vessels still were seen
- tolerance of steroid in the drinking water [12]: no adverse affects
- survival ([12]; end of two months of treatment): 60-65%
- hematocrits ([5]; higher dose prednisolone): elevated hematocrits beyond the normal range
- average hematocrits ([5]; lower prednisolone dose): in the normal range
- change in hematocrit [5]: elevated hematocrits
- impact on continuing elevation of ANA levels [6]: did not have a significant impact
- serum immune complex levels after treatment ([11]; higher prednisolone dose, dropped from 3,920 μg/ml): approximately 450 μg/ml
- effect on serum immune complexes [11]: lowered serum immune complexes in a dose dependent manner
- serum immune complexes after treatment ([11]; prednisolone 5 mg dose, reduced from 4,570 μg/ml): 1,092 μg/ml

Source: patent publication US20060013858A1, “Fludrocortisone treatment for hearing loss” (priority 2002, published 2006)
